# Measurements taken from US8815535B2, “Disk diffusion assay for oritavancin” (The Medicines Company, priority 2011, dated 2014).
# Key:
# Type in all cases: cell-based
# [1] = tested on: S. aureus isolates; experiment: Broth microdilution (BMD) MIC, panel of isolates; details: Staphylococcus aureus, wild-type susceptibility to oritavancin
# Excerpt: (§1) To date, only the broth microdilution (BMD) minimal inhibitory concentration (MIC) test is a reference method accepted by the Clinical Laboratory Standards Institute (CLSI) for use in determining the susceptibility of a bacterial isolate to oritavancin (Methods for Dilution Antimicrobial Susceptibility Tests for Bacteria That Grow Aerobically; Approved Standard, CLSI document M7-A8, 8th ed. Clinical and Laboratory Standards Institute, Wayne, Pa. 2009; Performance Standards for Antimicrobial Susceptibility Testing; Eighteenth Informational Supplement, CLSI document M100-S18, 7th ed. Clinical and Laboratory Standards Institute, Wayne, Pa. 2008).
# [2] = tested on: MSSA ATCC 29213; experiment: Broth microdilution (BMD) MIC; details: Staphylococcus aureus, read-out: Oritavancin BMD MIC
# Excerpt: as §1
# [3] = tested on: hVISA NRS2; experiment: Broth microdilution (BMD) MIC; details: Staphylococcus aureus, read-out: Oritavancin BMD MIC
# Excerpt: as §1
# [4] = tested on: MSSA U148267; experiment: Broth microdilution (BMD) MIC; details: Staphylococcus aureus, read-out: Oritavancin BMD MIC
# Excerpt: as §1
# [5] = tested on: MSSA V406985; experiment: Broth microdilution (BMD) MIC; details: Staphylococcus aureus, read-out: Oritavancin BMD MIC
# Excerpt: as §1
# [6] = tested on: MRSA NRS123-ORI^RS; experiment: Broth microdilution (BMD) MIC; details: Staphylococcus aureus; MRSA NRS123-ORI^RS (oritavancin reduced-susceptibility isolate)
# Excerpt: as §1
# [7] = tested on: VISA Mu50 (ATCC 700699); experiment: Broth microdilution (BMD) MIC; details: Staphylococcus aureus; VISA ATCC 700699 (Mu50); read-out: Oritavancin BMD MIC
# Excerpt: as §1
# [8] = tested on: hVISA NRS36; experiment: Broth microdilution (BMD) MIC; details: Staphylococcus aureus, read-out: Oritavancin BMD MIC
# Excerpt: as §1
# [9] = tested on: MRSA T998528; experiment: Broth microdilution (BMD) MIC; details: Staphylococcus aureus, read-out: Oritavancin BMD MIC
# Excerpt: as §1
# [10] = tested on: MSSA S815247; experiment: Broth microdilution (BMD) MIC; details: Staphylococcus aureus, read-out: Oritavancin BMD MIC
# Excerpt: as §1
# [11] = tested on: MRSA V406957; experiment: Broth microdilution (BMD) MIC; details: Staphylococcus aureus, read-out: Oritavancin BMD MIC
# Excerpt: as §1
# [12] = tested on: MRSA U933237; experiment: Broth microdilution (BMD) MIC; details: Staphylococcus aureus, read-out: Oritavancin BMD MIC
# Excerpt: as §1
# [13] = tested on: MRSA Q141067; experiment: Broth microdilution (BMD) MIC; details: Staphylococcus aureus, read-out: Oritavancin BMD MIC
# Excerpt: as §1
# [14] = tested on: MRSA U260847; experiment: Broth microdilution (BMD) MIC; details: Staphylococcus aureus, read-out: Oritavancin BMD MIC
# Excerpt: as §1
# [15] = tested on: MSSA T811355; experiment: Broth microdilution (BMD) MIC; details: Staphylococcus aureus, read-out: Oritavancin BMD MIC
# Excerpt: as §1
# [16] = tested on: MRSA V288615; experiment: Broth microdilution (BMD) MIC; details: Staphylococcus aureus, read-out: Oritavancin BMD MIC
# Excerpt: as §1
# [17] = tested on: MRSA T998608; experiment: Broth microdilution (BMD) MIC; details: Staphylococcus aureus, read-out: Oritavancin BMD MIC
# Excerpt: as §1
# [18] = tested on: MRSA NRS121; experiment: Broth microdilution (BMD) MIC; details: Staphylococcus aureus, read-out: Oritavancin BMD MIC
# Excerpt: as §1
# [19] = tested on: MRSA ATCC 33591; experiment: Broth microdilution (BMD) MIC; details: Staphylococcus aureus, read-out: Oritavancin BMD MIC
# Excerpt: as §1
# [20] = tested on: MSSA S815246; experiment: Broth microdilution (BMD) MIC; details: Staphylococcus aureus, read-out: Oritavancin BMD MIC
# Excerpt: as §1
# [21] = tested on: MSSA Q141066; experiment: Broth microdilution (BMD) MIC; details: Staphylococcus aureus, read-out: Oritavancin BMD MIC
# Excerpt: as §1
# [22] = tested on: MRSA V257345; experiment: Broth microdilution (BMD) MIC; details: Staphylococcus aureus, read-out: Oritavancin BMD MIC
# Excerpt: as §1
# [23] = tested on: VISA NRS402; experiment: Broth microdilution (BMD) MIC; details: Staphylococcus aureus, read-out: Oritavancin BMD MIC
# Excerpt: as §1
# [24] = tested on: MSSA U781969; experiment: Broth microdilution (BMD) MIC; details: Staphylococcus aureus, read-out: Oritavancin BMD MIC
# Excerpt: as §1
# [25] = tested on: MRSA Q670607; experiment: Broth microdilution (BMD) MIC; details: Staphylococcus aureus, read-out: Oritavancin BMD MIC
# Excerpt: as §1
# [26] = tested on: VISA NRS3; experiment: Broth microdilution (BMD) MIC; details: Staphylococcus aureus, read-out: Oritavancin BMD MIC
# Excerpt: as §1
# [27] = tested on: MRSA Q670505; experiment: Broth microdilution (BMD) MIC; details: Staphylococcus aureus, read-out: Oritavancin BMD MIC
# Excerpt: as §1
# [28] = tested on: MRSA U784439; experiment: Broth microdilution (BMD) MIC; details: Staphylococcus aureus, read-out: Oritavancin BMD MIC
# Excerpt: as §1
# [29] = tested on: MSSA U933236; experiment: Broth microdilution (BMD) MIC; details: Staphylococcus aureus, read-out: Oritavancin BMD MIC
# Excerpt: as §1
# [30] = tested on: MRSA NRS121-ORI^RS; experiment: Broth microdilution (BMD) MIC; details: Staphylococcus aureus; MRSA NRS121-ORI^RS (oritavancin reduced-susceptibility isolate)
# Excerpt: as §1
# [31] = tested on: VISA Mu50 (ATCC 700699); experiment: Disk diffusion assay (zone of inhibition); details: Staphylococcus aureus, Oxoid disks, 20 μl of 18 mg/ml oritavancin in 5% P80, stored 30 days at room temperature, prediffusion 6 hours at 4° C., read-out: Inhibition zone diameter
smiles,measurement,setting,value
"CN[C@H](CC(C)C)C(=O)N[C@H]1C(=O)N[C@@H](CC(N)=O)C(=O)N[C@H]2C(=O)N[C@H]3C(=O)N[C@H](C(=O)N[C@H](C(=O)O)c4cc(O)cc(O)c4-c4cc3ccc4O)[C@H](O[C@H]3C[C@](C)(N)[C@@H](O)[C@H](C)O3)c3ccc(c(Cl)c3)Oc3cc2cc(c3O[C@@H]2O[C@H](CO)[C@@H](O)[C@H](O)[C@H]2O[C@H]2C[C@](C)(NCc3ccc(-c4ccc(Cl)cc4)cc3)[C@@H](O)[C@H](C)O2)Oc2ccc(cc2Cl)[C@H]1O [oritavancin, N-(4-(4-chlorophenyl)benzyl)A82846B]",MIC90,[1],0.12 µg/mL
same,MIC,[2],0.06 µg/mL
same,MIC,[3],0.25 µg/mL
same,MIC,[4],0.015 µg/mL
same,MIC,[5],0.12 µg/mL
same,MIC,[6],0.25 µg/mL
same,MIC,[7],1 µg/mL
same,MIC,[8],1 µg/mL
same,MIC,[9],0.015 µg/mL
same,MIC,[10],0.015 µg/mL
same,MIC,[11],0.12 µg/mL
same,MIC,[12],0.12 µg/mL
same,MIC,[13],0.015 µg/mL
same,MIC,[14],0.06 µg/mL
same,MIC,[15],0.03 µg/mL
same,MIC,[16],0.03 µg/mL
same,MIC,[17],0.03 µg/mL
same,MIC,[18],0.06 µg/mL
same,MIC,[19],0.06 µg/mL
same,MIC,[20],0.03 µg/mL
same,MIC,[21],0.03 µg/mL
same,MIC,[22],0.12 µg/mL
same,MIC,[23],1 µg/mL
same,MIC,[24],0.03 µg/mL
same,MIC,[25],0.03 µg/mL
same,MIC,[26],1 µg/mL
same,MIC,[27],0.25 µg/mL
same,MIC,[28],0.03 µg/mL
same,MIC,[29],0.06 µg/mL
same,MIC,[30],0.5 µg/mL
same,zone of inhibition at 18000 µg/mL,[31],13 mm
